Results reported in patent US20120316105A1, “Polymyxin Derivates Useful As Antibacterial Agents” (priority 2011, published 2012).
Bridge positions count the residues as written; N and C are the ends. Square brackets hold non-standard residues; d marks the D form. Peptide text beside a SMILES is read from it. * marks the point of attachment. X13 = N#Cc1ccc(-c2cc(C(=O)*)ccc2F)cc1; X17 = N#Cc1ccc(-c2cccc(C(=O)*)c2)cc1; X19 = N#Cc1ccc(-c2cccc(C(=O)*)c2)nc1; X2 = N#Cc1ccc(-c2cc(C(=O)*)ccn2)cc1F; X22 = COc1cccc(-c2cc(C(=O)*)ccn2)c1; X25 = O=C(c1ccc(Cl)c(-c2ccccn2)c1)*; X37 = COc1cc(C(=O)*)cc(-c2ccccc2)n1; X24 = COc1ccc(-c2ccccc2)cc1C(=O)*; X16 = O=C(c1ccc(-c2ccccc2)nc1)*; X27 = O=C(c1cncc(-c2ccccc2)c1)*; X8 = O=C(c1cc(-c2ccccc2)ccc1F)*; Dab = NCC[C@H](N)C(=O)O; Dap = NC[C@H](N)C(=O)O

Legend:
[1] = Cytotoxicity assay (LDH release), hRPTEC; format: cell-based, human; conditions: human
Procedure, shortened: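 hRPTEC grown 72 h in REGM, then exposed to compounds at 100, 67, 44, 30, 20 and 13 micromolar for 24 h at 37° C, 5% CO2. LDH released into supernatant measured; TC50 (micromolar) derived. Compounds tested as trifluoroacetate salts unless otherwise noted.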

[2] = system: EC-1, mouse virulent strain of Escherichia coli; format: cell-based; conditions: E. coli EC-1; overnight incubation, lower of duplicate values; trifluoroacetate salt (Example 1 and PMB sulfate)
Procedure, shortened: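 Compounds were tested mostly as trifluoroacetate salts. Duplicate CLSI broth-dilution MICs were read visually after overnight incubation over 2-fold dilutions, with the lower of duplicates within 2-fold taken. QC organisms and reference drugs were included in each run.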

[3] = system: AB-1649, polymyxin-resistant clinical isolate of Acinetobacter baumannii; format: cell-based; conditions: AB-1649, polymyxin-resistant clinical isolate of
Procedure, shortened: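 MIC and MBC were measured by CLSI broth dilution methods (M7-A8, M100-S20, M26-A) against a polymyxin-resistant clinical isolate and reported in mg/L. Compounds were tested as trifluoroacetate salts, with one exception tested as the sulfate.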

[4] = system: PA-1646, polymyxin-resistant clinical isolate of Pseudomonas aeruginosa; format: cell-based; conditions: PA-1646, polymyxin-resistant clinical isolate of
Procedure, shortened: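 Broth dilution MIC and bactericidal (MBC) testing per CLSI methods (M7-A8, M100-S20, M26-A) against polymyxin-resistant clinical P. aeruginosa isolate PA-1646. Compounds tested as trifluoroacetate salts, one as sulfate salt; values in mg/L.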

[5] = system: PA-1646, polymyxin-resistant clinical isolate of Pseudomonas aeruginosa; format: cell-based; conditions: PA-1646, polymyxin-resistant clinical isolate of; remark: listed apart in the source
Procedure, shortened: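 Broth dilution MIC per CLSI with 2-fold concentration steps, read visually after overnight incubation as lowest concentration inhibiting growth; duplicates within 2-fold, lower value reported, with QC strains and reference compounds. Compounds tested as trifluoroacetate salts, polymyxin B as sulfate.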

[6] = system: AB-3167, clinical isolate of Acinetobacter baumannii; format: cell-based; conditions: AB-3167, clinical isolate of
Procedure, shortened: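 Broth dilution MIC per CLSI (M7-A8, M100-S20, M26-A for bactericidal), 2-fold dilution series, overnight incubation, visual read of lowest concentration inhibiting growth versus drug-free control. Duplicates run; lower value reported if within 2-fold, otherwise repeated. Compounds tested as trifluoroacetate salts; QC strains and reference compounds required in range.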

[7] = system: Pseudomonas aeruginosa strain PA01; format: cell-based; conditions: strain
Procedure, shortened: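 CLSI broth dilution against P. aeruginosa PA01 with two-fold concentration steps and overnight incubation; MIC is lowest concentration visibly inhibiting growth versus drug-free control, in mg/L. Compounds tested as trifluoroacetate salts, in duplicate, lower value reported if within 2-fold; control organisms and reference compounds included.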

[8] = system: AB-1649, polymyxin-resistant clinical isolate of Acinetobacter baumannii; format: cell-based; conditions: AB-1649, polymyxin-resistant clinical isolate of; remark: listed apart in the source
Procedure, shortened: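 Broth dilution MIC per CLSI against the polymyxin-resistant A. baumannii isolate, 2-fold dilutions, overnight incubation, visual read of lowest concentration inhibiting growth. Run in duplicate, lower value reported when within 2-fold; MBC per CLSI M26-A guideline.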

Row | Structure (SMILES) | CC50 at 24 h [1] [µM] | EC-1 MIC [2] [µg/mL] | AB-1649 MBC [3] [µg/mL] | PA-1646 MBC [4] [µg/mL] | PA-1646 MIC [5] [µg/mL] | AB-3167 MIC [6] [µg/mL] | PA01 MIC [7] [µg/mL] | AB-1649 MIC [8] [µg/mL]
1 | CC(C)C[C@@H]1NC(=O)[C@@H](Cc2ccccc2)NC(=O)[C@H](CCN)NC(=O)[C@@H](NC(=O)[C@H](CN)NC(=O)[C@@H](NC(=O)[C@H](CCN)NC(=O)c2cccc(-c3ccc(C#N)cn3)c2)[C@@H](C)O)CCNC(=O)[C@H]([C@@H](C)O)NC(=O)[C@H](CCN)NC(=O)[C@H](CCN)NC1=O [Example 26] (X19-[Dab]T[Dap][Dab][Dab][dF]L[Dab][Dab]T; lactam 4-C) | 77 | 0.25 | 4 | 8 | 4 | 1 | 1 | 4
2 | CC(C)C[C@@H]1NC(=O)[C@@H](Cc2ccccc2)NC(=O)[C@H](CCN)NC(=O)[C@@H](NC(=O)[C@H](CN)NC(=O)[C@@H](NC(=O)[C@H](CCN)NC(=O)c2ccc(-c3ccccc3)nc2)[C@@H](C)O)CCNC(=O)[C@H]([C@@H](C)O)NC(=O)[C@H](CCN)NC(=O)[C@H](CCN)NC1=O [Example 27] (X16-[Dab]T[Dap][Dab][Dab][dF]L[Dab][Dab]T; lactam 4-C) | 73 | 0.125 | 4 | 4 | 2 | 0.25 | 0.5 | 4
3 | CC(C)C[C@@H]1NC(=O)[C@@H](Cc2ccccc2)NC(=O)[C@H](CCN)NC(=O)[C@@H](NC(=O)[C@H](CN)NC(=O)[C@@H](NC(=O)[C@H](CCN)NC(=O)c2ccc(Cl)c(-c3ccccn3)c2)[C@@H](C)O)CCNC(=O)[C@H]([C@@H](C)O)NC(=O)[C@H](CCN)NC(=O)[C@H](CCN)NC1=O [Example 28] (X25-[Dab]T[Dap][Dab][Dab][dF]L[Dab][Dab]T; lactam 4-C) | 72 | 0.25 | 4 | 16 | 4 | 0.25 | 1 | 4
4 | COc1cccc(-c2cc(C(=O)N[C@@H](CCN)C(=O)N[C@H](C(=O)N[C@@H](CN)C(=O)N[C@H]3CCNC(=O)[C@H]([C@@H](C)O)NC(=O)[C@H](CCN)NC(=O)[C@H](CCN)NC(=O)[C@H](CC(C)C)NC(=O)[C@@H](Cc4ccccc4)NC(=O)[C@H](CCN)NC3=O)[C@@H](C)O)ccn2)c1 [Example 29] (X22-[Dab]T[Dap][Dab][Dab][dF]L[Dab][Dab]T; lactam 4-C) | 70 | 0.5 | 4 | 32 | 4 | 0.5 | 1 | 4
5 | CC(C)C[C@@H]1NC(=O)[C@@H](Cc2ccccc2)NC(=O)[C@H](CCN)NC(=O)[C@@H](NC(=O)[C@H](CN)NC(=O)[C@@H](NC(=O)[C@H](CCN)NC(=O)c2cncc(-c3ccccc3)c2)[C@@H](C)O)CCNC(=O)[C@H]([C@@H](C)O)NC(=O)[C@H](CCN)NC(=O)[C@H](CCN)NC1=O [Example 30] (X27-[Dab]T[Dap][Dab][Dab][dF]L[Dab][Dab]T; lactam 4-C) | 56 | 0.125 | 4 | 4 | 2 | 0.25 | 0.5 | 4
6 | CC(C)C[C@@H]1NC(=O)[C@@H](Cc2ccccc2)NC(=O)[C@H](CCN)NC(=O)[C@@H](NC(=O)[C@H](CN)NC(=O)[C@@H](NC(=O)[C@H](CCN)NC(=O)c2ccnc(-c3ccc(C#N)c(F)c3)c2)[C@@H](C)O)CCNC(=O)[C@H]([C@@H](C)O)NC(=O)[C@H](CCN)NC(=O)[C@H](CCN)NC1=O [Example 31] (X2-[Dab]T[Dap][Dab][Dab][dF]L[Dab][Dab]T; lactam 4-C) | 55 | 0.5 | 16 | 8 | 4 | 0.5 | 1 | 4
7 | CC(C)C[C@@H]1NC(=O)[C@@H](Cc2ccccc2)NC(=O)[C@H](CCN)NC(=O)[C@@H](NC(=O)[C@H](CN)NC(=O)[C@@H](NC(=O)[C@H](CCN)NC(=O)c2cccc(-c3ccc(C#N)cc3)c2)[C@@H](C)O)CCNC(=O)[C@H]([C@@H](C)O)NC(=O)[C@H](CCN)NC(=O)[C@H](CCN)NC1=O [Example 32] (X17-[Dab]T[Dap][Dab][Dab][dF]L[Dab][Dab]T; lactam 4-C) | 33 | 0.25 | 4 | 4 | 2 | 0.5 | 0.5 | 4
8 | CC(C)C[C@@H]1NC(=O)[C@@H](Cc2ccccc2)NC(=O)[C@H](CCN)NC(=O)[C@@H](NC(=O)[C@H](CN)NC(=O)[C@@H](NC(=O)[C@H](CCN)NC(=O)c2ccc(F)c(-c3ccc(C#N)cc3)c2)[C@@H](C)O)CCNC(=O)[C@H]([C@@H](C)O)NC(=O)[C@H](CCN)NC(=O)[C@H](CCN)NC1=O [Example 33] (X13-[Dab]T[Dap][Dab][Dab][dF]L[Dab][Dab]T; lactam 4-C) | 30 | 0.5 | 4 | 8 | 2 | 1 | 2 | 4
9 | CC(C)C[C@@H]1NC(=O)[C@@H](Cc2ccccc2)NC(=O)[C@H](CCN)NC(=O)[C@@H](NC(=O)[C@H](CN)NC(=O)[C@@H](NC(=O)[C@H](CCN)NC(=O)c2cc(-c3ccccc3)ccc2F)[C@@H](C)O)CCNC(=O)[C@H]([C@@H](C)O)NC(=O)[C@H](CCN)NC(=O)[C@H](CCN)NC1=O [Example 34] (X8-[Dab]T[Dap][Dab][Dab][dF]L[Dab][Dab]T; lactam 4-C) | 28 | 0.125 | 16 | 8 | 2 | 0.25 | 0.5 | 16
10 | COc1cc(C(=O)N[C@@H](CCN)C(=O)N[C@H](C(=O)N[C@@H](CN)C(=O)N[C@H]2CCNC(=O)[C@H]([C@@H](C)O)NC(=O)[C@H](CCN)NC(=O)[C@H](CCN)NC(=O)[C@H](CC(C)C)NC(=O)[C@@H](Cc3ccccc3)NC(=O)[C@H](CCN)NC2=O)[C@@H](C)O)cc(-c2ccccc2)n1 [Example 35] (X37-[Dab]T[Dap][Dab][Dab][dF]L[Dab][Dab]T; lactam 4-C) | 24 | 0.25 | 4 | 1 | 1 | 0.5 | 0.5 | 4
11 | COc1ccc(-c2ccccc2)cc1C(=O)N[C@@H](CCN)C(=O)N[C@H](C(=O)N[C@@H](CN)C(=O)N[C@H]1CCNC(=O)[C@H]([C@@H](C)O)NC(=O)[C@H](CCN)NC(=O)[C@H](CCN)NC(=O)[C@H](CC(C)C)NC(=O)[C@@H](Cc2ccccc2)NC(=O)[C@H](CCN)NC1=O)[C@@H](C)O [Example 36] (X24-[Dab]T[Dap][Dab][Dab][dF]L[Dab][Dab]T; lactam 4-C) | 19 | 0.5 | 4 | 2 | 2 | 0.25 | 0.5 | 4
